# Results published in patent US10426769B2, “Pharmaceutical composition for preventing and treating obesity or liver diseases, containg TLR7 agonist” (KNOTUS CO., LTD., priority 2015, dated 2019).
# What was measured:
# LC3A/B and IGF-1 [1] = assay: LC3A/B and IGF-1 protein levels in UFAs-treated mouse hepatocytes; type: cell-based; details: proteins isolated from hepatocytes, imiquimod treatment
# Experimental: (§1) The imiquimod purchased in Example 1 was tested in cells. Mouse hepatocytes were obtained by cellizing liver tissues isolated from normal C57BL6/J mice and TLR7 KO mice lacking the TLR7 gene and fat accumulation was induced by treatment with 10 mM of unsaturated fatty acid (UFAs) mixed with arachidonic acid (Sigma, USA) and oleic acid (Sigma, USA) 1:1.
# (§2) Cells were incubated at 37° C., 5% of CO2. DMEM (Dulbecco's modified Eagle's medium) containing 10% fetal bovine serum (FBS) and antibiotic (penicillin/streptomycin; Gibco, USA) was used as the cell culture medium. Every two days, the surface of the cultured cells was washed with phosphate buffered saline (PBS) and cells were isolated by treatment with 0.5% trypsin and then subcultured.
# (§3) The imiquimod was treated at the concentration of 10 μg/ml 1 hour before the start of the experiment. UFAs were then added and the fat accumulation was assessed after 48 hours.
# In FIG. 3, expression of autophagosome associated with congenital immunity and IGF-1 associated with fatty liver development was compared and evaluated. According to recently published international journals, It has been reported that as the expression of LC3A/B, an indicator of autophagosome increases, fatty liver improves, and as IGF-1 is inhibited, the fatty liver improves.
# C57BL6/J mice [2] = assay: Fatty liver in mice fed high unsaturated fat diet, liver tissue and H & E staining; type: in vivo, mouse; details: 45% UFAs diet 8 weeks, imiquimod 0.1 mg/kg injected twice a week
# Experimental: (§4) C57BL6/J mice (Daehan Biolink, Daejeon, Korea) that induced obesity with feed containing 45% UFAs for 8 weeks and a knockout mouse (TLR7 KO) from Dr. Akira (Osaka University, Suita, Japan) in which TLR7 is not inherently present, were used. For this purpose, imiquimod was injected twice a week at a concentration of 0.1 mg/kg, while fatty liver model was made by feeding only high unsaturated fat diet (UFAs diet with 45% of the calories, Daehan Biolink, Daejeon, Korea) for 8 weeks.
# As a result of H & E staining of tissue sections, balloon, a sign of fat accumulation between cells and cells, was found in UFAs fed mice, which was confirmed to be improved by imiquimod injection.
# Mouse hepatocytes = assay: Fat accumulation in UFAs-treated mouse hepatocytes (oil-red-o staining, absorbance at 540 nm); type: cell-based; details: imiquimod 10 μg/ml 1 hour before UFAs, 48 hours, vs group without treatment
# Experimental: as §1, §2, §3
# In order to confirm that imiquimod inhibits the fat accumulation effect in hepatocytes, the cells were cultured for 48 hours after the reagent treatment according to the method of Example 2 above. The cells were stained with an oil-red-o reagent (Lifeline Cell Technology, Carlsbad, Calif., USA) and the accumulation of fat was visually evaluated (FIG. 1).
# [3] = system: SREBP-1, FAS, aP2 and PPARγ gene expression; assay: Real time RT-PCR of fat-related genes in UFAs-treated mouse hepatocytes; type: cell-based; details: imiquimod 10 μg/ml
# Experimental: as §1, §2, §3
# To determine the level of RNA expression at the gene level of fatty acid synthase (FAS), SREBP-1 (sterol regulatory element binding protein-1), PPARγ (peroxisome proliferator-activated receptor), and aP2 (fatty acid binding protein 4), real time RT-PCR (ABI Step One Plus Sequence System, Applied Biosystems, Singapore) was performed. The PPARγ and FAS are directly related to fat metabolism, and since the metabolism is regulated by the aP2 and SREBP-1 factor, it was determined whether imiquimod affects the factor.
# From the above results, it was confirmed that imiquimod inhibited lipid accumulation in hepatocytes through inhibition of SREBP-1, FAS, aP2 and PPARγ gene expression.
# C57BL6/J mice [4] = assay: Serological analysis of fatty liver mice (AST, ALT, triglyceride, total cholesterol); type: in vivo, mouse; details: UFAs feed 8 weeks, imiquimod 0.1 mg/kg twice a week
# Experimental: as §4
# [5] = system: SREBP-1, FAS, PPAR-γ, and aP2; assay: Real-time RT-PCR of fat-induced genes in liver tissue of fatty liver mice; type: in vivo, mouse; details: UFAs feed 8 weeks, imiquimod 0.1 mg/kg twice a week, liver mRNA
# Experimental: as §4
# Fat-induced genes such as SREBP-1, FAS, PPAR-γ, and aP2 were increased in liver tissues from liver-derived mice fed UFAs compared to the control group.
# C57BL6/J mice [6] = assay: Triglyceride and cholesterol in liver tissue of fatty liver mice (ELISA); type: in vivo, mouse; details: UFAs feed 8 weeks, imiquimod 0.1 mg/kg twice a week
# Experimental: as §4
# The liver tissues separated from the mouse were finely crushed to prepare analytical samples, and the levels of triglyceride and cholesterol were measured using Enzyme Linked ImmunoSorbent Assay (ELISA) (FIG. 7).
# LC3A/B and IGF-1 [7] = assay: LC3A/B and IGF-1 protein expression in liver tissue of fatty liver mice; type: in vivo, mouse; details: fatty liver induced by UFAs, imiquimod 0.1 mg/kg twice a week, proteins from liver tissue
# Experimental: as §4
# Autophagosome associated with congenital immunity, and expression of IGF-1 associated with fatty liver development were compared and evaluated with proteins isolated from liver tissue. Similar to the protein isolated from the hepatocytes, and expression of TLR7 and its downstream transcript Myd88 was also confirmed, and as a result, we confirmed that imiquimod affects the expression of LC3A/B, an autophagosome marker, and IGF-1, a hepatocyte-producing protein, through TLR7 hyperactivity.
compound,measurement,setting,value
CC(C)Cn1cnc2c(N)nc3ccccc3c21 [imiquimod],IGF-1 protein level,LC3A/B and IGF-1 [1]; IGF-1 increased by UFAs,decreases
same,LC3A/B (indicator of autophagosome) protein level,LC3A/B and IGF-1 [1]; LC3A/B inhibited by UFAs,significant increases
same,"balloon (sign of fat accumulation), H & E staining of tissue sections",C57BL6/J mice [2],improved
same,development of fatty liver (evaluation of liver tissue),C57BL6/J mice [2],significant inhibition
same,level of fat (absorbance at 540 nm),Mouse hepatocytes,lower than that in the group without treatment
same,expression of FAS,[3],inhibited the expression
same,expression of PPARγ,[3],inhibited the expression
same,expression of SREBP-1,[3],inhibited the expression
same,expression of aP2,[3],inhibited the expression
same,serum ALT level,C57BL6/J mice [4],significantly decreased
same,serum AST level,C57BL6/J mice [4],significantly decreased
same,serum cholesterol level,C57BL6/J mice [4],significantly reduced
same,serum triglyceride level,C57BL6/J mice [4],significantly reduced
same,FAS gene expression in liver tissue,[5],significantly reduced
same,PPAR-γ gene expression in liver tissue,[5],significantly reduced
same,SREBP-1 gene expression in liver tissue,[5],significantly reduced
same,aP2 gene expression in liver tissue,[5],significantly reduced
same,cholesterol level in liver tissue,C57BL6/J mice [6],significant reductions
same,triglyceride level in liver tissue,C57BL6/J mice [6],significant reductions
same,IGF-1 expression in liver tissue,LC3A/B and IGF-1 [7],decreased
same,LC3A/B expression in liver tissue,LC3A/B and IGF-1 [7],significantly increased
